The values that follow come from patent US20090318493A1 (Roche Palo Alto LLC, priority 2008, published 2009).

Common to all, as to type: binding
The target in experiment [1] is T1, hNET transporter (Homo sapiens, UniProt P23975).
T1 construct: expressed in transfected cells; membranes prepared
Nature of the experiment: Human norepinephrine transporter (hNET) scintillation proximity assay, competition with [3H]-Nisoxetine. How it is done:
This assay was used to determine the affinity of ligands for the hNET transporter by competition with [^3H]-Nisoxetine. As in the hSERT assay of the above example, receptor-containing membranes were pre-coupled to the SPA beads and the binding of the appropriate radioligand to the transporter was measured. The light emission was proportional to the amount of bound radioligand, with unbound radioligand producing no signal.
HEK-293 cells (Tatsumi et al., Eur. J. Pharmacol. 1997, 30, 249-258) stably expressing recombinant hNET (Clone: HEK-hNET #2) were maintained with media (DMEM hi glucose with 10% FBS, 300 μg/ml G418 and 2 mM L-Glutamine) and incubated at 37° C. with 5% CO2. Cells were released from culture flasks using PBS for 1-2 minutes. The cells were subsequently centrifuged at 1000 g's for 5 minutes and resuspended in PBS prior to being used in the membrane preparation.
(§1) Cell membranes were prepared using a membrane preparation buffer of 50 mM TRIS (pH 7.4). Cell membranes were prepared from a single cube (7.5×10^9cells total). Cells were homogenized using a Polytron (setting medium for a 4 second burst). The homogenate was then centrifuged at 48,000×g for 15 minutes, the supernatant subsequently removed and discarded, and the pellet resuspended with fresh buffer. After a second centrifugation, the pellet was re-homogenized and brought to a final volume determined during the assay. Typically, membrane portions were aliquoted in 3-6 mg/mil (w:v). and stored at −80° C.
^3[H] […] Compounds of the invention were diluted from 10 mM to 0.1 nM FAC (10 point curves, whole log /half log dilutions) via a Beckman Biomek 2000 using a serial dilution protocol. The test compounds were then transferred (20 μl/well) and the radioligand was added at 50 μl/well. Membrane and beads were prepared to a ratio of 10 μg: 0.7 mg, with 0.7 mg PVT-WGA Amersham beads (Cat# RPQ0282V) added per well. 130 μl of the membrane: bead mixture was added to the assay plate. The mixtures were allowed to stand at room temperature for one hour, and were then counted on a Packard TopCount LCS, a generic SPA counting protocol settings (Energy Range: Low, Efficiency Mode: Normal, Region A: 1.50-35.00, Region B: 1.50-256.00, Count Time (min.): 0.40, Background Subtract: none, Half-Life Correction: no, Quench Indicator: tSIS, Platemap blank subtraction: No, Cross talk reduction: Off).
The % inhibition was calculated for each compound tested [(Compound CPM at maximum concentration-Non-Specific CPM)/Total CPM*100]. The concentration producing 50% inhibition (IC50) was determined using an iterative non-linear curve fitting technique with Activity Base/Xlfit using the following equation:
(§2) where max=total binding, min=non specific binding, x=concentration (M) of the tested compound and n=Hill slope. The inhibition dissociation constant (Ki) of each compound was determined according to the method of Cheng-Prusoff and then converted into negative logarithm (pKi) of the Ki.

For experiment [2], the target named is T2, hSERT transporter (Homo sapiens, UniProt P31645).
T2 construct: expressed in transfected cells; membranes prepared
The experiment in a line: Human serotonin transporter (hSERT) scintillation proximity assay, competition with [3H]-Citalopram.
Text: Screening for Human Serotonin Transporter (hSERT) Antagonists Using a Scintillation Proximity Assay (SPA)
The screening assay of this example was used to determine the affinity of ligands at the hSERT transporter by competition with [^3H]-Citalopram.
Scintillation Proximity Assay (SPA) works by bringing radioligand within close proximity to the bead's scintillant to stimulate light emission. In this assay, the receptor-containing membranes were pre-coupled to the SPA beads and the binding of the appropriate radioligand to the transporter was measured. The light emission was proportional to the amount of bound radioligand. Unbound radioligand produced no signal as a result of distant proximity to scintillant (lack of energy transfer).
Cells are released from culture flasks using PBS for 1-2 minutes. The cells were subsequently centrifuged at 1000 g's for 5 minutes and resuspended in PBS prior to being used in the membrane preparation.
as §1, with “(7.5×10^9 cells” for “(7.5×10^9cells”, “3 mg/ml” for “3-6 mg/mil”
Compounds of the invention were diluted from 10 mM to 0.1 nM FAC (10 point curves, whole log/half log dilutions) via a Beckman Biomek 2000 using a serial dilution protocol. The test compounds were then transferred (20 μl/well) and the [^3H]-Citalopram radioligand was added at 50 μl/well. Membrane and beads were prepared to a ratio of 10 μg: 0.7 mg, with 0.7 mg PVT-WGA Amersham beads (Cat# RPQ0282V) added per well. 130 μl of the membrane: bead mixture was added to the assay plate.
The % inhibition was calculated for each compound tested [(Compound counts per minute (CPM) at maximum concentration-Non-Specific CPM)/Total CPM*100].
as §2
For orientation: In a scintillation proximity assay essentially only radioactivity close to the scintillant gives light.

Experiment [3] addresses T3, hDAT (Homo sapiens, UniProt Q01959).
T3 construct: expressed in transfected cells; plated whole cells
Nature of the experiment: Human dopamine transporter scintillation proximity assay, competition with [3H]-Vanoxerine. How it is done: This assay was used to determine the affinity of ligands for the dopamine transporter by competition with [^3H]-Vanoxerine.
Cells were plated four hours prior to experiment by placing approximately 30,000 cells per well (in PBS) on white, opaque Cell-Tak coated 96 well plates. Extra buffer was apriated from the cell plates using an ELx405 plate washer.
Compounds of the invention were diluted from 10 mM to 0.1 nM FAC (10 point curves, whole log/half log dilutions) via a Beckman Biomek 2000 using a 10-point dilution protocol. The mixtures were allowed to stand at room temperature for 30 minutes, and were then counted on a Packard TopCount LCS, a generic SPA counting protocol settings, Count Time (min.): 0.40, Background Subtract: none, Half-Life Correction: none, Quench Indicator: tSIS, Platemap blank subtraction: none, Cross talk reduction: Off).
The % inhibition was calculated for each compound tested [(Compound CPM at maximum concentration-Non-Specific CPM)/Total CPM*100].
as §2

[4] abbreviates: Table 1, read-out: pIC50 NET (converted).
The mark [5] stands for this setting: Table 1, read-out: pIC50 SERT (converted).
[6] abbreviates: Table 1, read-out: pIC50 DAT (converted).

Molecules are shown by their SMILES. Where two headings read alike, the source gives them in different places.

T1 sequence (P23975 whole entry): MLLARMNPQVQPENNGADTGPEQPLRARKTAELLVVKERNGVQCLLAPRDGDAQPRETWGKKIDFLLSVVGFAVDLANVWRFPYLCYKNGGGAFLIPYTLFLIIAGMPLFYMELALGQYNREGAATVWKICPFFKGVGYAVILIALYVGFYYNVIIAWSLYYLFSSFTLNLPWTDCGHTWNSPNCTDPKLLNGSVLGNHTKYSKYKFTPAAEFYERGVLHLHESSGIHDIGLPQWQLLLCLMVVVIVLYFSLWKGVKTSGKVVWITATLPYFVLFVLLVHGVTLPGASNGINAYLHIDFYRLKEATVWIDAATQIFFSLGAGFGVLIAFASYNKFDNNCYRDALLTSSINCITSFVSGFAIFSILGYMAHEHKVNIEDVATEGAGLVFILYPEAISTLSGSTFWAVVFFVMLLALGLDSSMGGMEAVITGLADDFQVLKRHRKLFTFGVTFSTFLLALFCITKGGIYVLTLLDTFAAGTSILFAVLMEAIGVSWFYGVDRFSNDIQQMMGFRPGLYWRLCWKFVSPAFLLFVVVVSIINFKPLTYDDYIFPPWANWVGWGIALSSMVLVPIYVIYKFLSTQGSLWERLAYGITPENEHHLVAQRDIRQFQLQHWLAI
T3 sequence (Q01959 whole entry): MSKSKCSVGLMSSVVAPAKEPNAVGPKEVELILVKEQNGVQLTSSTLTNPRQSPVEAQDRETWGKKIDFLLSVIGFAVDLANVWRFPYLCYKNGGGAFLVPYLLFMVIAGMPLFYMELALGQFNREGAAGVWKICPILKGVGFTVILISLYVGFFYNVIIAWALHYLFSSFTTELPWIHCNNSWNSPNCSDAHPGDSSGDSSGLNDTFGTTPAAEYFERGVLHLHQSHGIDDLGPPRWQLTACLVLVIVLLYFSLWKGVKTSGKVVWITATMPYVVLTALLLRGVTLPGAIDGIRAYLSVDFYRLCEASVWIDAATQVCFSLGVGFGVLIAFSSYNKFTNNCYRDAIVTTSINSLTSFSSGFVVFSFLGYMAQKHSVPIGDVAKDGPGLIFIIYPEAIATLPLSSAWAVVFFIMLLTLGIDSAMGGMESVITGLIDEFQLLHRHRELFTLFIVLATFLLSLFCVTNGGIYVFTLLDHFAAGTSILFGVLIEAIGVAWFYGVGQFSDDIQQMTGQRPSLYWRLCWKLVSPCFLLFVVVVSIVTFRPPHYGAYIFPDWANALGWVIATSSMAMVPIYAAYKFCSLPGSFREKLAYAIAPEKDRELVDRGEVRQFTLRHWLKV
T2 sequence (P31645 whole entry): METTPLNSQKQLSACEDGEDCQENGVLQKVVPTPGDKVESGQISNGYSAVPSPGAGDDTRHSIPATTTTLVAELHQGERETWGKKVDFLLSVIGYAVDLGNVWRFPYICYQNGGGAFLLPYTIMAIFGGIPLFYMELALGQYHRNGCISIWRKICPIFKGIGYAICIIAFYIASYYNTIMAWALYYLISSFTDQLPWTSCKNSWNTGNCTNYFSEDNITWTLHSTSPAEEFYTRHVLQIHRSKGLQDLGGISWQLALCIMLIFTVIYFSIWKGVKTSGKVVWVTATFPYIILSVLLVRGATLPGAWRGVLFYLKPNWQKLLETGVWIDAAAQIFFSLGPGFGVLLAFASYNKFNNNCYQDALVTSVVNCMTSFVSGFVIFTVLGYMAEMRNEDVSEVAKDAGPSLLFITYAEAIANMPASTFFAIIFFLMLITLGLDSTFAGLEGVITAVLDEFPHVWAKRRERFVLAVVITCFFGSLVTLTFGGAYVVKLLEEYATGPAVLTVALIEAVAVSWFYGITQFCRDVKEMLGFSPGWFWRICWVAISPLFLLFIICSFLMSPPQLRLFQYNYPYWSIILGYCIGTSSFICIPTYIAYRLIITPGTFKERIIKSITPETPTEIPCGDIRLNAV

As to `Cc1ccc(C(=O)C2(CC(C)C)CCNCC2)cc1Cl` [Compound 35, (3-Chloro-4-methyl-phenyl)-(4-isobutyl-piperidin-4-yl)-methanone], the IC50 in experiment [1] (setting [4]) was 45.7 nM; in experiment [2] (setting [5]) it was 0.589 nM; in experiment [3] (setting [6]) it was 10.5 nM.

Consider `CCCC1(C(=O)c2ccc3ccccc3c2)CCNCC1` [Compound 36, Naphthalen-2-yl-(4-propyl-piperidin-4-yl)-methanone], for which the IC50 was 15.8 nM in experiment [1] (setting [4]), 0.102 nM in experiment [2] and 9.12 nM in experiment [3].

In the case of `COC(C)(C)CC1(C(=O)c2ccc(Cl)c(Cl)c2)CCNCC1` [Compound 37, (3,4-Dichloro-phenyl)-[4-(2-methoxy-2-methyl-propyl)-piperidin-4-yl]-methanone], the IC50 in experiment [1] (setting [4]) is 105 nM; in experiment [2] (setting [5]), 1.12 nM; in experiment [3] (setting [6]) it was 4.79 nM.

For `Cc1ccc(C(=O)C2(CCC(C)C)CCNCC2)cc1Cl` [Compound 38, (3-Chloro-4-methyl-phenyl)-[4-(3-methyl-butyl)-piperidin-4-yl]-methanone], the IC50 in experiment [1] (setting [4]) was 135 nM; in experiment [2] (setting [5]) it was 3.47 nM; in experiment [3] (setting [6]), 14.8 nM.

`O=C(c1ccc(Cl)c(Cl)c1)C1(CC2CCCC2)CCNCC1` [Compound 39, (4-Cyclopentylmethyl-piperidin-4-yl)-(3,4-dichloro-phenyl)-methanone]: the IC50 in experiment [1] (setting [4]) is 41.7 nM; in experiment [2] (setting [5]), 1.48 nM; in experiment [3] (setting [6]), 3.16 nM.

`CCCC1(C(=O)c2ccc(Cl)cc2Oc2ccccc2)CCNCC1` [Compound 40, (4-Chloro-2-phenoxy-phenyl)-(4-propyl-piperidin-4-yl)-methanone]: the IC50 was 27.5 nM in experiment [1] (setting [4]), 69.2 nM in experiment [2] (setting [5]) and 1480 nM in experiment [3] (setting [6]).

In the case of `O=C(c1ccc(Cl)c(Cl)c1)C1(CC2CCOCC2)CCNCC1` [Compound 41, (3,4-Dichloro-phenyl)-[4-(tetrahydro-pyran-4-ylmethyl)-piperidin-4-yl]-methanone], the IC50 in experiment [1] (setting [4]) was 209 nM; in experiment [2] (setting [5]), 1.15 nM; in experiment [3] (setting [6]) it was 7.94 nM.

For the compound `O=C(c1ccc(Cl)c(Cl)c1)C1(CC2CCCO2)CCNCC1` (stereo not drawn) [Compound 42, (3,4-Dichloro-phenyl)-[4-(tetrahydro-furan-2-ylmethyl)-piperidin-4-yl]-methanone], the IC50 in experiment [1] (setting [4]) is 47.9 nM; in experiment [2], 1 nM; in experiment [3], 3.63 nM.

Regarding `O=C(c1ccccc1)C1(Cc2ccc(Cl)c(Cl)c2)CCNCC1` [Compound 43, [4-(3,4-Dichloro-benzyl)-piperidin-4-yl]-phenyl-methanone], the IC50 is 1510 nM in experiment [1] (setting [4]), 75.9 nM in experiment [2] and 575 nM in experiment [3] (setting [6]).

For the compound `CNc1ccc(C(=O)C2(CC(C)C)CCNCC2)cc1Cl` [Compound 44, (3-Chloro-4-methylamino-phenyl)-(4-isobutyl-piperidin-4-yl)-methanone], the IC50 in experiment [1] (setting [4]) was 51.3 nM; in experiment [2], 0.724 nM; in experiment [3], 57.5 nM.

For the compound `CC(C)CC1(C(=O)c2ccc(Cl)c(Oc3ccccc3)c2)CCNCC1` [Compound 45, (4-Chloro-3-phenoxy-phenyl)-(4-isobutyl-piperidin-4-yl)-methanone], the IC50 in experiment [1] (setting [4]) is 2.57 nM; in experiment [2] (setting [5]), 2.4 nM; in experiment [3] (setting [6]), 34.7 nM.

For `CCCC1(C(=O)c2ccc(Cl)c(Oc3ccccc3)c2)CCNCC1` [Compound 46, (4-Chloro-3-phenoxy-phenyl)-(4-propyl-piperidin-4-yl)-methanone], the IC50 in experiment [1] (setting [4]) is 11.5 nM; in experiment [2] (setting [5]), 7.08 nM; in experiment [3] (setting [6]) it was 30.2 nM.

Take `CC(C)C[C@@]1(C(=O)c2ccc(Cl)c(Cl)c2)CC[C@@H]2CC[C@H]1N2` [Compound 47, (3,4-Dichloro-phenyl)-((1R,2S,5R)-2-isobutyl-8-aza-bicyclo[3.2.1]oct-2-yl)-methanone]: the IC50 in experiment [1] (setting [4]) was 200 nM; in experiment [2] it was 7.94 nM; in experiment [3] it was 24 nM.

For `CC[C@@]1(C(=O)c2ccc(Cl)c(Cl)c2)CC[C@@H]2CC[C@H]1N2` [Compound 48, (3,4-Dichloro-phenyl)-((1R,2R,5R)-2-ethyl-8-aza-bicyclo[3.2.1]oct-2-yl)-methanone], the IC50 in experiment [1] (setting [4]) was 1150 nM; in experiment [2], 7.76 nM; in experiment [3], 209 nM.

For the compound `CC[C@]1(C(=O)c2ccc(Cl)c(Cl)c2)CC[C@@H]2CC[C@H]1N2` [Compound 49, (3,4-Dichloro-phenyl)-((1R,2S,5R)-2-ethyl-8-aza-bicyclo[3.2.1]oct-2-yl)-methanone], the IC50 is 5130 nM in experiment [1] (setting [4]), 631 nM in experiment [2] and 1580 nM in experiment [3].

For `CCCC1(C(=O)c2ccc(Cl)c(-c3ccn[nH]3)c2)CCCNC1` (stereo not drawn) [Compound 50, [4-Chloro-3-(2H-pyrazol-3-yl)-phenyl]-(3-propyl-piperidin-3-yl)-methanone], the IC50 in experiment [1] was 30.9 nM; in experiment [2], 7.76 nM; in experiment [3] (setting [6]), 4270 nM.

For `CCCC1(C(=O)c2ccc(Cl)c(N(C)c3ccccc3)c2)CCNCC1` [Compound 51, [4-Chloro-3-(methyl-phenyl-amino)-phenyl]-(4-propyl-piperidin-4-yl)-methanone], the IC50 in experiment [1] (setting [4]) was 162 nM; in experiment [2] (setting [5]), 18.6 nM; in experiment [3] (setting [6]), 195 nM.

As to `CC(C)(C)CCC1(C(=O)c2ccc(Cl)c(Cl)c2)CCCNC1` (stereo not drawn) [Compound 56, (3,4-Dichloro-phenyl)-[3-(3,3-dimethyl-butyl)-piperidin-3-yl]-methanone], the IC50 in experiment [1] (setting [4]) was 32.4 nM; in experiment [2] it was 17.4 nM; in experiment [3], 15.1 nM.

Regarding `CC(C)(C)CC[C@]1(C(=O)c2ccc(Cl)c(Cl)c2)CCCNC1` [Compound 59, (3,4-Dichloro-phenyl)-[(S)-3-(3,3-dimethyl-butyl)-piperidin-3-yl]-methanone], the IC50 in experiment [1] is 10.5 nM; in experiment [2], 14.5 nM; in experiment [3] (setting [6]), 324 nM.
